According to patent publication US20260248774A1, “INHIBITORS OF BACTERIAL TYPE III SECRETION SYSTEM” (MICROBIOTIX, INC., priority 2022, published 2026):

Legend:
[1] = system: P. aeruginosa T3SS-mediated secretion of ExoS-β-lactamase fusion protein; test: Effector-β-lactamase (ExoS-βLA) reporter assay of T3SS-mediated secretion; type: cell-based, Pseudomonas aeruginosa; details: read-out: ExoS-BLA IC50; Table 1
Description: Effector-β-Lactamase (βLA) Reporter Assay of T3SS-Mediated Secretion with an Absorbency Signal.
A gene encoding the exoS promoter/regulatory region and an ExoS-β-lactamase (βLA) fusion protein (comprised of the full length P. aeruginosa T3SS effector ExoS fused in reading frame to the TEM-1 β-lactamase gene lacking secretion signal codons) was constructed by splicing by overlap extension PCR (SOE-PCR) (Choi and Schweizer, 2005, BMC Microbiol., 5:30), sequence confirmed, cloned into miniCTX and introduced into P. aeruginosa strain PAO1 to generate strains MDM1746 and MDM1838 as previously described for strain MDM1710 (Bowlin et al., 2014, Antimicrob Agents Chemother., 58:2211-2220). Secretion of ExoS-β-lactamase fusion protein following EGTA addition to induce the T3SS operons was detected by measuring the hydrolysis of the chromogenic β-lactamase substrate nitrocefin in clear 96-well microplates in a modification of a previously described assay (Lee, et al., 2007, Infect. Immun., 75:1089-98). Cells of strain MDM1746, or negative control MDM1838 (which fails to carry out T3SS secretion due to ΔpscF), were sub-cultured in the morning from overnight growths in LBG into 0.1 ml of LBGE with or without test compounds and grown for 150 min. Nitrocefin (100 μg/mL final) was added, and A490 measurements taken every minute for 15 min in a Victor^3V 1420 Multilabel HTS Counter (PerkinElmer). Slopes were calculated as a relative measure of the quantity of the effector-βLA fusion protein secreted and were absolutely dependent on induction with EGTA, and the presence of a functional pscF gene in the P. aeruginosa cells. Typical signal: background ratios were 6-10.

[2] = Kinetic aqueous solubility (nephelometric assay); type: physicochemical; details: Table 1
Description: Solubility. The maximum aqueous solubility of analogs will be initially determined by nephelometry using a published method (44).

CYP450 1A2 = CYP450 1A2 (Homo sapiens, UniProt P05177); test: Cytochrome P450 inhibition, CYP1A2 (Eurofins Panlabs panel); type: in vitro ADME; details: assayed at 10 μM
CYP450 1A2, sequence (P05177 whole entry): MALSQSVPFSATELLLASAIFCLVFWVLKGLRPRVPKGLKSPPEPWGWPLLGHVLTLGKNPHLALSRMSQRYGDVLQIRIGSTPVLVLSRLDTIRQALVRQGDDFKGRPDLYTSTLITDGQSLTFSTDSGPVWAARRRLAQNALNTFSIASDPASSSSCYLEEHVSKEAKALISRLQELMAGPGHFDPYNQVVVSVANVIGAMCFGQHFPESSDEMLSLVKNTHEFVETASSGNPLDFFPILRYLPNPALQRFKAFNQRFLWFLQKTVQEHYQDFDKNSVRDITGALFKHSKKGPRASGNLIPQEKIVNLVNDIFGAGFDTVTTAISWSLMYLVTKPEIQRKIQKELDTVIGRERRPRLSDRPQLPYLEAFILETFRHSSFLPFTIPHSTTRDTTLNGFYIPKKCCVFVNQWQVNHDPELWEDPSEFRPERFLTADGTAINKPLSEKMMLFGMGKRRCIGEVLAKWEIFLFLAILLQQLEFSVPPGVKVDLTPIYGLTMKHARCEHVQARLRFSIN
Method: Cytochrome P450 Inhibition.
Assessment of off-target effects of priority compounds. To assess potential off-target effects, we will evaluate prioritized hits validated by in vivo testing in the Eurofins Panlabs HitProfilingScreen+CYP450 assay panel, which is performed by Eurofins as a fee for service. The assay panel of consists of assays for 30 receptors and transporters plus the five major CYP450 enzymes (1A2, 2C19, 2C9, 2D6, 3A4).

[3] = target: panel of human cytochrome P450s, receptors, and ion channels (Homo sapiens, UniProt P08172); details: assayed at 10 μM
panel of human cytochrome P450s, receptors, and ion channels (Homo sapiens, UniProt P08172), sequence (P08172 whole entry): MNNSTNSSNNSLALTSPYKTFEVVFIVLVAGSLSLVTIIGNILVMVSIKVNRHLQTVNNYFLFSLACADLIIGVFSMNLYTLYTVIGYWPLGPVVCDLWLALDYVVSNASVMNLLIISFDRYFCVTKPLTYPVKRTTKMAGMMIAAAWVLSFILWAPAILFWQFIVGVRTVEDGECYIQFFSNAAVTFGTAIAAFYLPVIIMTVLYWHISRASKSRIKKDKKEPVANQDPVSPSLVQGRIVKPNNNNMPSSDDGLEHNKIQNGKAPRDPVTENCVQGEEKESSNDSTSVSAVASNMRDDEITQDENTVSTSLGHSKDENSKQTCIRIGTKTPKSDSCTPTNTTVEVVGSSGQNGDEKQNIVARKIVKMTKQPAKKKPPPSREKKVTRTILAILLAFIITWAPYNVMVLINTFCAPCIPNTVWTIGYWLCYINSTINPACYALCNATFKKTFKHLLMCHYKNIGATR

[4] = target: panel of human cytochrome P450s, receptors, and ion channels (Homo sapiens, UniProt P20309); details: assayed at 10 μM
panel of human cytochrome P450s, receptors, and ion channels (Homo sapiens, UniProt P20309), sequence (P20309 whole entry): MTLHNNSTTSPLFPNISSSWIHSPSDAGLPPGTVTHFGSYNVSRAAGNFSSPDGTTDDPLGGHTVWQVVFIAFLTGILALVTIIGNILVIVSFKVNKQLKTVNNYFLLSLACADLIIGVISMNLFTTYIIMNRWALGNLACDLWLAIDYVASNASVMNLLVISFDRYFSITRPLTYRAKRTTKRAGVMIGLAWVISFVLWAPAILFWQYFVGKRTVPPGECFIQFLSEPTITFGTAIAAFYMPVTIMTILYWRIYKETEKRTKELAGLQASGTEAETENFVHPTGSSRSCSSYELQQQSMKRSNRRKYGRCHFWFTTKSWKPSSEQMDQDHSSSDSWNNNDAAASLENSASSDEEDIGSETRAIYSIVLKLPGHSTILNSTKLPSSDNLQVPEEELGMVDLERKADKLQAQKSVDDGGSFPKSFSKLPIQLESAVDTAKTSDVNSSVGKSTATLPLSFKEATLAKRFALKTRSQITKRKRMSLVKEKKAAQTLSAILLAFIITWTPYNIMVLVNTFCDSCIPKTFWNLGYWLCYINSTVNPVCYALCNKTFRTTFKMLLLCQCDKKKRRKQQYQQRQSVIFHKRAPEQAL

[5] = target: panel of human cytochrome P450s, receptors, and ion channels (Homo sapiens, UniProt P21728); details: assayed at 10 μM
panel of human cytochrome P450s, receptors, and ion channels (Homo sapiens, UniProt P21728), sequence (P21728 whole entry): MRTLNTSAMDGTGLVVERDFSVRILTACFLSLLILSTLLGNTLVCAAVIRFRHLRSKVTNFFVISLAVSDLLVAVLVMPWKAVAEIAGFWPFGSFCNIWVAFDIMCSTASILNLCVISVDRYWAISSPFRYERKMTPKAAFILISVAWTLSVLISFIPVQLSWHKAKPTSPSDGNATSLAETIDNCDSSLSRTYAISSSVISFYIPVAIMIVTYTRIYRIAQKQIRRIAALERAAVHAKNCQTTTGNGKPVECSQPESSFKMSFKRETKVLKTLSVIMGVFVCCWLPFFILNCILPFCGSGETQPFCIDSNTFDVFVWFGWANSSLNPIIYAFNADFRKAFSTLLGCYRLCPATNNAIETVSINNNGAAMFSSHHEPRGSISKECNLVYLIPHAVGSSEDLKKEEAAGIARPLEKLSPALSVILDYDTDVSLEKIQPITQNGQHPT

[6] = target: panel of human cytochrome P450s, receptors, and ion channels (Homo sapiens, UniProt P23975); details: assayed at 10 μM
panel of human cytochrome P450s, receptors, and ion channels (Homo sapiens, UniProt P23975), sequence (P23975 whole entry): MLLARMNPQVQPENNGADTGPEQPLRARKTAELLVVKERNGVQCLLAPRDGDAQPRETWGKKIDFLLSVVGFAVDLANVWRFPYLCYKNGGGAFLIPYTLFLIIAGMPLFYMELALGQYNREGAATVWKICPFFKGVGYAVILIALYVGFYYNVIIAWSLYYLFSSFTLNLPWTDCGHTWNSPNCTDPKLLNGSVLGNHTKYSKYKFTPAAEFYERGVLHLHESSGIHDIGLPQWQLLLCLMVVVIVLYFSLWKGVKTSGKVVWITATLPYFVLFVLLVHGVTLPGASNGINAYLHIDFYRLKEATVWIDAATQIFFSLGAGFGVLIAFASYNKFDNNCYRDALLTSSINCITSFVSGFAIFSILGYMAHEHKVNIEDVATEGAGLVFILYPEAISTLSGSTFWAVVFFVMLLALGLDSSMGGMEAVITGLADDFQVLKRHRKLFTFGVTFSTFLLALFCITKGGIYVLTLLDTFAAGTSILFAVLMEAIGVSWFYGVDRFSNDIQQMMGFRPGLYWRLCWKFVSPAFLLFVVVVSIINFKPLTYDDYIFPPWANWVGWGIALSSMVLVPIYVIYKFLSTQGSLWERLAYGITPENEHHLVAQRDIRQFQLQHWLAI

[7] = target: panel of human cytochrome P450s, receptors, and ion channels (Homo sapiens, UniProt P30542); details: assayed at 10 μM
panel of human cytochrome P450s, receptors, and ion channels (Homo sapiens, UniProt P30542), sequence (P30542 whole entry): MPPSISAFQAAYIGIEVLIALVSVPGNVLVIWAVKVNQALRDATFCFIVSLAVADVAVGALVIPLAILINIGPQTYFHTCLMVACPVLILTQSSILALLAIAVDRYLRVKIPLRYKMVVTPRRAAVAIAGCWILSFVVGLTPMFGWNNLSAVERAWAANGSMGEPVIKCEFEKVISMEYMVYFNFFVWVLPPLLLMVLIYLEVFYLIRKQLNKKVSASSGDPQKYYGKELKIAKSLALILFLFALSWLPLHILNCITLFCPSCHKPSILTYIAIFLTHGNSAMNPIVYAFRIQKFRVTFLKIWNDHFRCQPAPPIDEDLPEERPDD

[8] = target: panel of human cytochrome P450s, receptors, and ion channels (Homo sapiens, UniProt P35367); details: assayed at 10 μM
panel of human cytochrome P450s, receptors, and ion channels (Homo sapiens, UniProt P35367), sequence (P35367 whole entry): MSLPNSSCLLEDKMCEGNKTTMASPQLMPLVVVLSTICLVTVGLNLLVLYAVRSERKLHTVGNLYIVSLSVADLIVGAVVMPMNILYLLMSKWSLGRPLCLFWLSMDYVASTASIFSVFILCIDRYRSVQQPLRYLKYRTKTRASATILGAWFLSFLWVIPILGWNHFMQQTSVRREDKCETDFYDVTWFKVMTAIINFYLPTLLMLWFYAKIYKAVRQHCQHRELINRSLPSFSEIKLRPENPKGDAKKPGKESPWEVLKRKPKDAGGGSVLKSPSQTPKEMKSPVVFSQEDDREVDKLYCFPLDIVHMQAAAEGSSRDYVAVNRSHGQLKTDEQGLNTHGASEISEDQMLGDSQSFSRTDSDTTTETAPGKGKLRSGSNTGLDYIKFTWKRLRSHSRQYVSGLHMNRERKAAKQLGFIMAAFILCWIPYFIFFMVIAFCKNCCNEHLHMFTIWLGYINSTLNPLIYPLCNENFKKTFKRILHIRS

[9] = system: panel of human cytochrome P450s, receptors, and ion channels

Structure (SMILES): CCC(Oc1ccc(Cl)c(Cl)c1Cl)C(=O)NCc1ccc(F)cc1 (centres unmarked) [MBX-4532]
- IC50 [1]: 1 µM
- Sol [2]: 25 µM
- CYP450, 1A2 (CYP450 1A2): 24
- Muscarinic M2 [3]: 23
- Muscarinic M3 [4]: 8
- Dopamine D1 [5]: 0
- Transporter, Norepinephrine (NET) [6]: 61
- Adenosine A1 [7]: 15
- Histamine H1 [8]: 23
- Calcium Channel L-Type, Dihydropyridine ([9]; assayed at 10 μM): 56
- GABAA, Flunitrazepam, Central ([9]; assayed at 10 μM): −1
- GABAA, Muscimol, Central ([9]; assayed at 10 μM): 2
- Glutamate, NMDA, Phencyclidine ([9]; assayed at 10 μM): 29
- Imidazoline I2, Central ([9]; assayed at 10 μM): 27
- Nicotinic Acetylcholine αβ4 ([9]; assayed at 10 μM): 7
- Phorbol Ester ([9]; assayed at 10 μM): 5
- Potassium Channel [KATP] ([9]; assayed at 10 μM): 0
- Rolipram ([9]; assayed at 10 μM): 23
- Sodium Channel, Site 2 ([9]; assayed at 10 μM): 39
- specificity vs mammalian receptors and enzymes, including hERG ([9]; assessment in text): not specific enough
